Assay results taken from patent US20240001019A1, “MBL-COATED SUBSTRATES HAVING ANTI-THROMBOGENIC PROPERTIES” (MIRAKI INNOVATION THINK TANK LLC, priority 2020, published 2024).

Key:
[1] = Retention of coupled FcMBL on the membrane under flow (PBS/EDTA wash fractions); format: physicochemical; settings: Lot 152-04052017, Devices #1-#3, serial 45 mL fractions
Protocol: The FcMBL protein concentration in each sample was determined using the Pierce 660 nm assay and an FcMBL standard curve.
Three Filtrivas from Lot 152-04052017 (Devices #1, #2, and #3) were selected for analysis of their respective PBS/EDTA wash fractions to determine the extent to which the FcMBL bound to the membrane, remains bound under flow conditions. The mass of protein obtained from five serial fractions of 45 mL, three fractions from the Blood Port Output and two fractions from the subsequent Wash Buffer, was determined. […] After the second Blood Port Output, the amount of FcMBL in the subsequent fractions was undetectable (data not shown).

[2] = test system: CD62P (platelet P-selectin); test: Flow-cytometric analysis of platelet activation (CD62P on CD41a positive platelets); format: cell-based, human; settings: for CD62P geometrical means of fluorescence intensity from TRAP-incubated samples: 35 μM TRAP, 20 min

Substance | FcMBL coupled to the membrane under flow, PBS/EDTA washing [1] | CD62P geometrical means of fluorescence intensity from TRAP-incubated samples ([2]; 1st experiment) | CD62P geometrical means of fluorescence intensity from TRAP-incubated samples ([2]; 2nd experiment) | CD62P geometrical means of fluorescence intensity from TRAP-incubated samples ([2]; 3rd experiment) | CD62P geometrical means of fluorescence intensity, positive control ([2]; all experiments)
FcMBL: 383-amino acid human recombinant fusion protein: carbohydrate-binding and neck domains of MBL and Fc domain of human IgG1 | stays bound under flow conditions |  |  |  | 
thrombin receptor activating peptide [TRAP] |  | 1376 | 209 | 350 | > 200
